Key:
sarcoma (S-180) = experiment: Anti-tumor effect on sarcoma (S-180) in vivo; parameters: species or system mice
Experimental: Sarcoma (S-180) tissues growing luxuriantly were prepared to be a cell suspension with physical saline 1:3(w/v). Mice were divided into groups at random the next day and were administered with doses of NLEJ emulsion of 25 ml/kg iv×7 (qd), doses of cyclophosphamide of 30 mg/kg ip×2 (second and fourth), doses of mitoxantrone (DHAD) of 2 mg/kg ip×2 (second and fourth), and doses of mitomycin of 1.5 mg/kg ip×2 (second and fourth). Tumor tissues from all treatments were sampled and weighed to calculate tumor inhibition ratios 14 days after inoculating.

human hepatoma (QGY) = experiment: Growth of human hepatoma (QGY) in nude mice; type: in vivo, human (nude mouse); conditions: 30 mg/kg ip daily 7 days
Experimental: Hepatoma (QGY) tissues growing luxuriantly were homogenized in physical saline (1:4) and prepared as a suspension. Each nude mouse was inoculated subcutaneously with 0.2 ml of the suspension at its armpit. The nude mice were divided into groups at random the next day. The doses of NLEJ emulsion were 25 ml/kg, 12.5 ml/kg and 6.25 ml/kg. The emulsion was administrated intravenously at the tail of the nude mouse every day for 10 days. One group of mice were administered with cyclophosphamide (CTX) of a dose of 30 mg/kg intraperitoneally every day for 7 days. The nude mice of the control group were administered with a similar emulsion just absent the NLEJ (blank emulsion) at a dose of 25 ml/kg intravenously at the tail of the nude mouse every day for 10 days. Tumor tissues of all nude mice were sampled and weighed 30 days after inoculating.

melanoma (B16) = experiment: Metastasis of melanoma (B16) in lung in vivo; parameters: species or system C57BL/6 mouse; conditions: 100 mg/kg ip × 2 (3, 5)
Experimental: Melanoma B16 tissues growing at logarithmic stage were digested with 0.15% trypsin, and 0.2 ml suspension of 2.5×10^5 cells/ml in RPMI 1640 medium from the tissues was inoculated intravenously into the tail of each C57BL/6 mouse. Mice were divided into groups at random 3 days after inoculating and were administered different emulsions. Mice were killed 21 days after inoculating, and metastasized colonies of melanoma in mouse's lung were counted to calculate the inhibition ratio and compare the different effects of different administrations of NLEJ emulsion on metastasis of malanoma in lung. 100 mg/kg cyclophosphamide (CTX) was administered in the same way to compare with NLEJ emulsion.

[1] = system: Walaer carcinosarcoma (solid) W256; experiment: Anti-tumor effect on Walaer carcinosarcoma (solid) W256 in vivo; parameters: species or system rat
Experimental: Ascites Walaer carcinosarcoma (solid) W256 tissues growing luxuriantly were digested to be a cell suspension. The cell suspension was regulated to have a 1-2×10^7 /ml cell density. 0.2 ml of the suspension was inoculated under the skin of armpit of each rat. The rats were divided into groups at random the next day and were administered with doses of NLEJ emulsion of 20 ml/kg, 10 ml/kg, 5 ml/kg iv×10 (qd), and doses of […], the doses of cyclophosphamide were 30 mg/kg iv×7 (qd), mg/kg iv×2 (third and fifth). Tumor tissues from all treatments were sampled and weighed to calculate tumor inhibition ratios 14 days after inoculating.

leukocyte [2] = experiment: Protection on decrease of leukocyte induced by cyclophosphamide chemotherapy; type: in vivo, Swiss mice; conditions: CTX 45 mg/kg ip × 1, 5, 9
Experimental: (§1) 80 Swiss mice were divided into eight groups at random, were administered with cyclophosphamide at 45 mg/kg ip×3 (second, sixth and tenth), or harringtonine (HRTN) at 1 mg/kg ip×3 (second, sixth and tenth). To each of two of the medicine groups were administered NLEJ emulsion at the same time, at doses of 2.4 ml/kg and 6.25 ml/kg iv×7 (every day). At the beginning and on the fourth day of each administration, blood was sampled from the angle of each mouse's eye, and leukocytes of the blood were counted.

leukocyte [3] = experiment: Protection on decrease of leukocyte induced by harringtonine chemotherapy; type: in vivo, Swiss mice; conditions: HRTN 1 mg/kg ip × 1, 5, 9
Experimental: as §1

[4] = system: human small cell lung cancer (SPC); experiment: Growth of human small cell lung cancer (SPC) in nude mice; type: in vivo, human (nude mouse); conditions: 40 mg/kg iv×10 (qd)
Experimental: SPC tumor tissues growing luxuriantly were cut into pieces of 2 mm, one of the pieces was inoculated under the skin of the armpit of each nude mouse. Nude mice were divided into groups at random the next day and one group was administered with the NLEJ emulsion at a dose of 25 ml/kg iv×10 (qd), one group of mice was administered with dacarbazine (DTIC) at a dose of 40 mg/kg iv×10 (qd), and the nude mice of the control group were administered with blank emulsion at a dose of 25 ml/kg iv×10 (qd). Tumor tissues of all nude mice were sampled and weighed 30 days after inoculating.

[5] = system: mouse Ehrlich ascites tumor; conditions: cited from earlier work

For `O=C1c2c(O)ccc(O)c2C(=O)c2c(NCCNCCO)ccc(NCCNCCO)c21` [DHAD, mitoxantrone], the “Inhibition (%)” value (sarcoma (S-180); 2 mg/kg ip × 2 (1, 3)) was 50%.

In the case of `O=P1(N(CCCl)CCCl)NCCCO1` (stereo not shown) [CTX, cyclophosphamide], the Inhibition (%) (human hepatoma (QGY)) is reported as 91.00%, the Tumor (human hepatoma (QGY)) is reported as 0.28 ± 0.08 g and the “Colony No.” value (melanoma (B16); Table 4) is reported as 18.80 ± 8.50. For the same molecule, the “Inhibition (%)” value (melanoma (B16); Table 4) was 95.90%, the “Colony No.” value (melanoma (B16); Table 5) was 8.0 ± 6.22 and the “Inhibition (%)” value (melanoma (B16); Table 5) was 98.67%. The “Colony No.” value (melanoma (B16); Table 6) was 0, the “Inhibition (%)” value (melanoma (B16); Table 6) was 100% and the “Inhibition (%)” value ([1]; 10 mg iv × 2) was 38.58%. For the same molecule, the “Weight (tumor)” value ([1]; 10 mg iv × 2) was 2.07 ± 1.11 g, the “Inhibition (%)” value ([1]; 30 mg iv × 7) was 88.13% and the “Weight (tumor)” value ([1]; 30 mg iv × 7) was 0.4 ± 0.15 g. The “Inhibition (%)” value (sarcoma (S-180); 30 mg/kg ip × 2 (1, 3)) was 39.4%, the Leucocyte number (leukocyte [2]; time 0) was 62 × 100/mm^3 and the Leucocyte number (leukocyte [2]; time 3) was 49 × 100/mm^3. The Leucocyte number (leukocyte [2]; time 6) was 45 × 100/mm^3, the Leucocyte number (leukocyte [2]; time 9) was 41 × 100/mm^3 and the Leucocyte number (leukocyte [2]; time 12) was 41 × 100/mm^3. For the same molecule, the Leucocyte number (leukocyte [2]; time 15) was 42 × 100/mm^3, the Leucocyte number (leukocyte [2]; time 18) was 45 × 100/mm^3 and the Leucocyte number (leukocyte [2]; time 21) was 47 × 100/mm^3. The Leucocyte number (leukocyte [2]; time 24) was 49 × 100/mm^3.

For `COC(=O)C[C@](O)(CCC(C)(C)O)C(=O)O[C@@H]1C(OC)=C[C@]23CCCN2CCc2cc4c(cc2[C@H]13)OCO4` [HRTN, harringtonine], the Leucocyte number (leukocyte [3]; time 0) was 60 × 100/mm^3, the Leucocyte number (leukocyte [3]; time 3) was 75 × 100/mm^3 and the Leucocyte number (leukocyte [3]; time 6) was 65 × 100/mm^3. The Leucocyte number (leukocyte [3]; time 9) was 50 × 100/mm^3, the Leucocyte number (leukocyte [3]; time 12) was 44 × 100/mm^3 and the Leucocyte number (leukocyte [3]; time 15) was 43 × 100/mm^3. For the same molecule, the Leucocyte number (leukocyte [3]; time 18) was 49 × 100/mm^3, the Leucocyte number (leukocyte [3]; time 21) was 53 × 100/mm^3 and the Leucocyte number (leukocyte [3]; time 24) was 56 × 100/mm^3.

With `CN(C)/N=N/c1[nH]cnc1C(N)=O` [DTIC, dacarbazine] the Inhibition (%) [4] was 94.94% and the Tumor [4] was 0.18 ± 0.04.

In the case of `CCCCCC/C=C\CCCCCCCC(=O)O[C@H](C)[C@H](C)OC(=O)CCCCCCCCC/C=C/CCCCCC` [coixenolide], the “Growth of mouse Ehrlich ascites tumor” value ([5]; Ukita 1961) is listed as “inhibit the growth” and the Anti-tumor activity ([5]; pure compound) is listed as “strong anti-tumor activity”.

In the case of `CO[C@@]12[C@H](COC(N)=O)C3=C(C(=O)C(C)=C(N)C3=O)N1C[C@@H]1N[C@@H]12` [Mitomycin, mitomycin], the “Inhibition (%)” value (sarcoma (S-180); 1.5 mg/kg ip × 2 (1, 3)) is reported as 39.4%.
